Measurements taken from patent US9687432B2, “Antimicrobial bispyridine amine compositions and uses” (LONZA INC., priority 2012, dated 2017).

How the values were obtained:
Foam height test = format: physicochemical; settings: for foam height, 30 sec / foam height, 1 min / foam height, 2 min / foam height, Initial Reading: 0.5 grams in 49.5 ml DI water; for foam height, 30 sec / foam height, 1 min / foam height, 2 min: 100 ml graduated cylinder; for foam height, Initial Reading: read in 100 ml graduated cylinder with 1 ml line increments; for Type of Foam: 0.5 grams of active in 49.5 ml DI water, blended 1 minute
Experimental: The testing was performed on samples containing octenidine dihydrochloride, octenidine distearate, PHMB HCl and the chloride salts benzalkonium chloride, benzethonium chloride, and cetylpyridinium chloride.
A 250 ml beaker was filed with 49.5 ml of deionized (DI) water for each sample. Then, 0.5 grams of the active was added to the beaker. Each solution was blended with a Bamix® wand homogenizer/mixer for 1 minute. The solution was then poured into a 100 ml graduated cylinder with 1 ml line increments. The height of the foam was documented at an initial, 30 second, 1 minute, and 2 minute time point.

[1] = tested on: Bacillus licheniformis (14580); experiment: MIC test against skin microorganisms; format: cell-based; settings: 48 hrs at 36° C., two different sets
Experimental: (§1) MICs for the organisms were determined using a standard 96-well microtiter plate assay in Trypic Soy Broth (TSB). […] Bacteria were grown in Tryptic Soy Broth or Brain Heart Infusion (E. hirae) for 24 hrs and were adjusted to one million cells per milliliter in same type of broth. Following incubation (48 hrs at 36° C.), the lowest concentration of test compound inhibiting growth was recorded as the Minimum Inhibitory Concentration (MIC). The actives were serially diluted and tested at final concentrations ranging from 156.3-0.61 ppm. MIC was run for two different sets.
(§2) Bacteria were grown overnight in Tryptic Soy Brother (TSB) or Brain Heart Infusion (BHI) and were adjusted to approximately 1×10^6 colony forming units per ml (cfu/ml) and used to inoculate the wells. Final bacterial concentration in the test wells was 5×10^5 cfu/ml. For Corynebacterium spp, TSB was used for the first set and BHI for the second set. Inoculated microtiter plates were incubated at 36° C. for 48 hours.
(§3) The lowest concentration of test compound inhibiting growth was recorded as the minimum inhibitory concentration.

[2] = tested on: Corynebacterium minutissimum (23348); experiment: MIC test against skin microorganisms; format: cell-based; settings: 48 hrs at 36° C., TSB first set, BHI second set
Experimental: as §1, §2, §3

[3] = tested on: Corynebacterium xerosis (373); experiment: MIC test against skin microorganisms; format: cell-based; settings: 48 hrs at 36° C., TSB first set, BHI second set
Experimental: as §1, §2, §3

[4] = tested on: Staphylococcus haemolyticus (29970); experiment: MIC test against skin microorganisms; format: cell-based; settings: 48 hrs at 36° C., two different sets
Experimental: as §1, §2, §3

[5] = tested on: Aspergillus niger (16404); experiment: Minimum Inhibitory Concentration (MIC) test, 96-well microtiter plate; format: cell-based; settings: 48 hrs at 36° C., Sabouraud Dextrose Broth
Experimental: (§4) MICs for the organisms were determined using a standard 96-well microtiter plate assay in Tryptic Soy Broth (TSB) or Sabouraud Dextrose Broth (SDB). A stock solution (2500 ppm) of Octenidine distearate was prepared in methanol and stock solutions (2500 ppm) of Octenidine dihydrochloride and PHMB were prepared in absolute ethanol. […] Fungal inocula were grown up on Sabouraud Dextrose Agar plates (yeast) or Potato Dextrose Agar plates (mold) and mold spores and yeast cells were adjusted to approximately 100,000 per milliliter in Sabouraud Dextrose Broth (pH 5.6). Bacterial and fungal cultures were used to inoculate the serially diluted antimicrobials in the 96 well microplate and the plate was then incubated for 48 hrs at 36° C. The lowest concentration of test compound inhibiting growth at 48 hrs. (as determined by visual inspection) was recorded as the Minimum Inhibitory Concentration (MIC)

[6] = tested on: Aureobasidium pullulans (9348); experiment: as above; format: cell-based; settings: 48 hrs at 36° C., Sabouraud Dextrose Broth
Experimental: as §4

Bacillus subtilus (6633) = experiment: as above; format: cell-based; settings: 48 hrs at 36° C., visual inspection
Experimental: as §4

Candida albicans (10231) = experiment: as above; format: cell-based; settings: 48 hrs at 36° C., Sabouraud Dextrose Broth
Experimental: as §4

[7] = tested on: Enterobacter gergoviae (33028); experiment: as above; format: cell-based; settings: 48 hrs at 36° C., visual inspection
Experimental: as §4

[8] = tested on: Enterococcus hirae (8043); experiment: as above; format: cell-based; settings: 48 hrs at 36° C., visual inspection
Experimental: as §4

Escherichia coli (10536) = experiment: as above; format: cell-based; settings: 48 hrs at 36° C., visual inspection
Experimental: as §4

[9] = tested on: Gliocladium virens (9645); experiment: as above; format: cell-based; settings: 48 hrs at 36° C., Sabouraud Dextrose Broth
Experimental: as §4

[10] = tested on: Klebsiella pneumoniae (4352); experiment: as above; format: cell-based; settings: 48 hrs at 36° C., visual inspection
Experimental: as §4

LB penicillium sp. = experiment: as above; format: cell-based; settings: 48 hrs at 36° C., Sabouraud Dextrose Broth
Experimental: as §4

Paecilomyces sp. = experiment: as above; format: cell-based; settings: 48 hrs at 36° C., Sabouraud Dextrose Broth
Experimental: as §4

[11] = tested on: Penicillium pinophilium (11797); experiment: as above; format: cell-based; settings: 48 hrs at 36° C., Sabouraud Dextrose Broth
Experimental: as §4

[12] = tested on: Pseudomonas aeruginosa (15442); experiment: as above; format: cell-based; settings: 48 hrs at 36° C., visual inspection
Experimental: as §4

[13] = tested on: Pseudomonas aeruginosa (9027); experiment: as above; format: cell-based; settings: 48 hrs at 36° C., visual inspection
Experimental: as §4

[14] = tested on: Staphylococcus aureus (6538); experiment: as above; format: cell-based; settings: 48 hrs at 36° C., visual inspection
Experimental: as §4

Compound: CC(C)(C)CC(C)(C)c1ccc(OCCOCC[N+](C)(C)Cc2ccccc2)cc1 [Benzethonium Chloride, benzethonium chloride]
- foam height, 30 sec (Foam height test): 107
- foam height, 1 min (Foam height test): 107
- foam height, 2 min (Foam height test): 106
- foam height, Initial Reading (Foam height test): 107
- Type of Foam (Foam height test): Tight

Compound: Polyhexamethylene biguanide stearate [PHMBS]
- MIC (ppm) [1]: 2.44-4.88 ppm
- MIC (ppm) [2]: 0.61-4.88 ppm
- MIC (ppm) [3]: 9.76 ppm
- MIC (ppm) [4]: 2.44-4.88 ppm

Compound: polyhexamethylene biguanide hydrochloride [PHMB]
- Minimum Inhibitory Concentration (MIC) [5]: 2.44 ppm
- Minimum Inhibitory Concentration (MIC) [6]: 1.22 ppm
- Minimum Inhibitory Concentration (MIC) (Bacillus subtilus (6633)): 0.31-0.61 ppm ^
- Minimum Inhibitory Concentration (MIC) (Candida albicans (10231)): 0.61 ppm
- Minimum Inhibitory Concentration (MIC) [7]: 1.22-2.44 ppm ^
- Minimum Inhibitory Concentration (MIC) [8]: 2.44 ppm
- Minimum Inhibitory Concentration (MIC) (Escherichia coli (10536)): 1.22 ppm
- Minimum Inhibitory Concentration (MIC) [9]: 0.61 ppm
- Minimum Inhibitory Concentration (MIC) [10]: 1.22-2.44 ppm ^
- Minimum Inhibitory Concentration (MIC) (LB penicillium sp.): 1.22 ppm
- Minimum Inhibitory Concentration (MIC) (Paecilomyces sp.): 1250-5000 ppm
- Minimum Inhibitory Concentration (MIC) [11]: 2.44 ppm
- Minimum Inhibitory Concentration (MIC) [12]: 4.88 ppm
- Minimum Inhibitory Concentration (MIC) [13]: 2.44 ppm
- Minimum Inhibitory Concentration (MIC) [14]: 1.22-2.44 ppm ^
- foam height, 30 sec (Foam height test): 85
- foam height, 1 min (Foam height test): 80
- foam height, 2 min (Foam height test): 75
- foam height, Initial Reading (Foam height test): 87
- Type of Foam (Foam height test): Slightly loose

Compound: benzalkonium chloride
- foam height, 30 sec (Foam height test): 103
- foam height, 1 min (Foam height test): 102
- foam height, 2 min (Foam height test): 102
- foam height, Initial Reading (Foam height test): 103
- Type of Foam (Foam height test): Tight
